What all share (type): cell-based
Test [1] concerns C. difficile PCR ribotype 001 (vegetative, spores). Nature of the test: Growth on antibiotic-exposed cellulose acetate filters (Example 3C). The note with it: for Growth of vegetative C. difficile on filters through which antibiotic had been filtered: PCR ribotype 001 overnight culture, anaerobic incubation; for Growth of C. difficile spores on filters through which antibiotic had been filtered: PCR ribotype 001 spores. How it is done:
One mL solutions (containing no C. difficile spores) were processed as in Experiment 2B and filters placed onto Braziers CCEY agar. Onto the filters were inoculated 2×20 μL of:
a) Vegetative C. difficile (an overnight culture of PCR ribotype 001)
b) C. difficile spores (PCR ribotype 001), or
Growth/no growth was recorded following anaerobic incubation.

In test [2] the test system is genotypically distinct C. difficile (n = 33). Nature of the test: Broth macrodilution MIC. As to conditions: for MIC range / MIC90 / MIC: BM, broth macrodilution; for MIC90 / MIC: Clostridioides difficile; for MIC: read-out: GEO MIC.
Test [3] deals with indigenous gut microflora. Nature of the test: In vitro human gut model: indigenous gut microflora counts. The note with it: for Decline in Bacteroides populations / Decline in enterococcal populations: following instillation, period E, vessel 3. From the text: The gut model was designed to allow the study of the intestinal microflora in the low pH, carbohydrate-excess conditions of the proximal colon and the carbohydrate-depleted, non-acidic conditions of the distal colon (Macfarlane et al., Microb Ecol 1998; 35: 180-7). Microbiological and physicochemical measurements within the gut model vessels were validated against the intestinal contents of sudden death victims (Macfarlane et al., Microb Ecol 1998; 35: 180-7). Each gut model consists of three fermentation vessels connected in a weir cascade system top-fed with growth medium at a controlled rate (D=0.015 h^−1). Vessels were sparged with oxygen-free nitrogen to ensure anaerobiosis, heated via a water-jacketed system (37° C.) and maintained at specific pH using fermenter controller units (Biosolo 3, Brighton Systems, UK) delivering 0.5 M HCl/NaOH. Vessel 1 (280 mL) was operated at pH 5.5 and high substrate availability, thus reflecting the conditions within the proximal colon, while vessels 2 and 3 (300 mL) were operated at pH 6.2 and 6.8, respectively, with low substrate availability, thus reflecting the conditions within the distal colon. The gut model was primed with faecal slurry ˜10% (w/v) and allowed to equilibrate with respect to bacterial populations for 14 days.
Faecal samples were collected from five healthy elderly (>65 years) volunteers and immediately transported to the laboratory under anaerobic conditions (GasPak, Oxoid, Basingstoke, UK). […] C. difficile-negative faeces were pooled and a coarse-filtered slurry (˜10% w/v) in sterile pre-reduced phosphate-buffered saline was prepared. Vessels of the gut models were filled to approximately two-thirds volume, and the growth medium pumps were started.
Major culturable components of the indigenous gut microflora and C. difficile were enumerated by viable counting (log10 cfu/mL) on selective and non-selective agars as reported previously (Freeman et al., J Antimicrob Chemother 2005; 56: 717-25). Bacterial groups enumerated were: total facultative anaerobes, facultatively anaerobic lactose fermenters, total anaerobes, bifidobacteria, Bacteroides fragilis group, total clostridia, lactobacilli, enterococci, total C. difficile and C. difficile spores. C. difficile cytotoxin production was quantified using a Vero cell cytotoxicity assay as described previously (Freeman et al., J Antimicrob Chemother 2003; 52: 96-102). Cytotoxin titres were expressed in log10 relative units (RU). Only C. difficile total bacterial counts, spore counts and cytotoxin titres were enumerated in vessel 1 of the gut model.
The use of the gut model to evaluate therapeutic interventions for CDI has been described previously (Freeman et al., J Antimicrob Chemother 2007; 60: 83-91; Freeman et al., J Antimicrob Chemother 2005; 56: 717-25). Briefly, following inoculation of each gut model with the faecal slurry, no further interventions were made for 13 days (period A). During period A, bacterial populations were enumerated every 2 days. Next (day 14), vessel 1 of each gut model was inoculated with a single inoculum of ˜10^7 cfu C. difficile PCR ribotype 027 spores (Freeman et al., J Antimicrob Chemother 2003; 52: 96-102), with no further interventions for 7 days (period B). From this point onwards, bacterial populations were enumerated daily.

Test [4] has as its system C. difficile spores (PCR ribotypes 001, 106 and 027). Kind of test: Viability (recovery) of spores after antibiotic exposure, cellulose acetate filtration (Examples 3A, 3B). On the procedure: The experiments were in general performed by mixing C. difficile spores with an antibiotic, filtering the solution through cellulose acetate filters to collect the spores, applying the spore-containing filters to nutrient agar, and determining the number of spores remaining on the filters after a selected period of time.
Therefore, the initial experiment included dilution of antimicrobial-containing spore suspensions prior to filtration and washing. Reaction volumes were 1 mL for all antimicrobial/control solutions.
1 mL of control (de-ionised water+/−Tween-80) and test (antimicrobial containing) solutions were inoculated with 10 μL C. difficile spores (3 strains; PCR ribotypes 001, 106 and 027). Spore suspensions (time=1 min or 30 min) were transferred to filtration cupules and the appropriate volume of diluent (sterile de-ionised water+/−Tween-80) was added to achieve the dilution factors noted above. Samples were filtered onto cellulose acetate filters and washed with a further 50 mL of the appropriate diluent. Filters were transferred aseptically to Braziers CCEY agar containing 5 mg/L lysozyme and 2% lysed horse blood. This procedure was completed in duplicate. The culture media were incubated in an anaerobic atmosphere at 37° C. for 48 h and the numbers of C. difficile colonies were recorded.
Diluent was first added to filtration cupules. 1 mL reactions were then added to the appropriate diluent (1 min and 30 min after reaction formation) and filtered onto cellulose acetate filters. The filters were washed with 50 mL of the appropriate diluent. The filters were then transferred aseptically to Braziers CCEY agar containing 5 mg/L lysozyme and 2% lysed horse blood. This procedure was completed in duplicate. Culture media were incubated in an anaerobic atmosphere at 37° C. for 48 h and the numbers of C. difficile colonies recorded

In the next test the test system is C. difficile spores. Nature of the test: Agar-based culture: spore recovery after antimicrobial exposure. As to conditions: 350 mg/L, 1 min and 30 min, filtered onto CAF, 48 h. How it is done:
Antimicrobial-spore solutions were mixed, diluted (to sub-MIC) in sterile de-ionised water, filtered onto cellulose acetate filters (CAF, 0.45 μm) and washed. CAF were transferred onto Brazier's agar (pH 7)+5 mg/L lysozyme, and following anaerobic incubation (37° C., 48 h), % C. difficile spores (vs. control) were determined.

A further test deals with S. aureus NCTC 6571. Nature of the test: Agar incorporation MIC against S. aureus NCTC 6571. As to conditions: Staphylococcus aureus, NCTC6571; agar incorporation methodology.
Where [5] appears, read: Example 3A: diluent added after reaction solutions, 1 min and 30 min exposure.
Setting [6] is: Example 3B: diluent added to cupules before reaction solutions, 1 min and 30 min.

≈ marks a conversion by molar mass, not a printed value.

As usually defined, the MIC90 is the lowest concentration that inhibits either 90% of growth or 90% of the strains tested, depending on the study. A high value points to weaker potency. One may read the MIC as the lowest concentration found to suppress growth. Regarding `CN[C@H](CC(C)C)C(=O)N[C@H]1C(=O)N[C@@H](CC(N)=O)C(=O)N[C@H]2C(=O)N[C@H]3C(=O)N[C@H](C(=O)N[C@H](C(=O)O)c4cc(O)cc(O)c4-c4cc3ccc4O)[C@H](O[C@H]3C[C@](C)(N)[C@@H](O)[C@H](C)O3)c3ccc(c(Cl)c3)Oc3cc2cc(c3O[C@@H]2O[C@H](CO)[C@@H](O)[C@H](O)[C@H]2O[C@H]2C[C@](C)(NCc3ccc(-c4ccc(Cl)cc4)cc3)[C@@H](O)[C@H](C)O2)Oc2ccc(cc2Cl)[C@H]1O` [oritavancin, N-(4-(4-chlorophenyl)benzyl)A82846B], in test [1], the “Growth of vegetative C. difficile on filters through which antibiotic had been filtered” value is “Greatly reduced numbers” and the “Growth of C. difficile spores on filters through which antibiotic had been filtered” value is listed as “unrecoverable”. Also, in test [1] (on one plate), the “Vegetative C. difficile recovered on exposed filters” value is reported as 1 cfu. In test [2], the “Broth macrodilution MICs lower than agar incorporation MICs” value is on record as 2- to 4 fold, the “Broth macrodilution geometric mean MICs lower than those for metronidazole” value is approximately 2 fold, the “Broth macrodilution geometric mean MICs lower than those for vancomycin” value is on record as approximately 5 fold and the “Tested isolates more susceptible (≧2 doubling dilutions) than to vancomycin” value came out at 76%. Moreover, in test [2], the MIC range was in the range of 0.06 to 1 µg/mL, the MIC90 was determined as 1 µg/mL (≈ 0.558 µM) and the MIC came out at 0.31 µg/mL (≈ 0.173 µM). Moreover, in test [3], the “Decline in Bacteroides populations” value is listed as approximately 1 log10 cfu/mL and the “Decline in enterococcal populations” value was approximately 2 log10 cfu/mL. The “Bifidobacteria after cessation of instillation” value in test [3] (period F) is reported as “remained below the limits of detection”. Besides, in test [4] (setting [5]), the “Recovery of C. difficile spores” value is 0 % of controls. Besides, the “Recovery of C. difficile spores” value in test [4] (setting [6]) is recorded as 0 % of controls. In addition, in the test with C. difficile spores, the “Recovery of C. difficile spores following exposure” value is “not recovered”. Besides, the MIC against S. aureus NCTC 6571 was approximately 4 µg/mL (≈ 2.23 µM).
With `CN[C@H](CC(C)C)C(=O)N[C@H]1C(=O)N[C@@H](CC(N)=O)C(=O)N[C@H]2C(=O)N[C@H]3C(=O)N[C@H](C(=O)N[C@H](C(=O)O)c4cc(O)cc(O)c4-c4cc3ccc4O)[C@H](O)c3ccc(c(Cl)c3)Oc3cc2cc(c3O[C@@H]2O[C@H](CO)[C@@H](O)[C@H](O)[C@H]2O[C@H]2C[C@](C)(N)[C@H](O)[C@H](C)O2)Oc2ccc(cc2Cl)[C@H]1O` [vancomycin], in test [1], the “Growth of vegetative C. difficile on filters through which antibiotic had been filtered” value is “grew” and the “Growth of C. difficile spores on filters through which antibiotic had been filtered” value is “good growth”. Also, in test [2], the MIC range was in the range of 0.5 to 2 µg/mL, the MIC90 is 2 µg/mL (≈ 1.38 µM) and the MIC was found to be 1.58 µg/mL (≈ 1.09 µM). Moreover, in test [3], the “Decline in Bacteroides populations” value is given as approximately 6 log10 cfu/mL and the “Decline in enterococcal populations” value is approximately 1 log10 cfu/mL. Also, the “Bifidobacteria lower than steady-state (period A) after cessation of instillation” value in test [3] (period F) was approximately 2 log10 cfu/mL. In addition, in test [4] (setting [5]), the “Recovery of C. difficile spores” value is listed as 25-60 % of controls. Besides, the “Recovery of C. difficile spores” value in test [4] (setting [6]) was 70-80 % of controls.

(Values after US8629100B2, “Method of inhibiting clostridium difficile by administration of oritavancin” (The Medicines Company, priority 2007, dated 2014).)
